# Measured values as given in PMC4603696, “Discovery and characterization of novel small-molecule inhibitors targeting nicotinamide phosphoribosyltransferase” (Scientific Reports, 2015).
# Several values for one entry are separate records, joined by “and”; a condition that tells them apart may be missing. Identical values can stand only once. Like-named read-outs stand apart in the source and are kept apart here.
# What was measured:
# [1] = biological target: T1, NAMPT (Homo sapiens, UniProt P43490); experiment: NAMPT activity assay by fluorescence of NMN derivative (HTS system), IC50 determination; type: biochemical; parameters: His-tag; made in house; host or cells: E. coli BL21-CodonPlus (DE3)-RIL; details: for IC50: recombinant human NAMPT, read-out: NAMPT IC50
# [2] = system: HCT116 cells; experiment: SRB assay in HCT116; type: cell-based; details: Homo sapiens, HCT-116; HCT116, SRB, 10-fold concentration gradient; read-out: anti-proliferation IC50, initial screen
# Description: (§1) Sulfor hod am ine B p rotei n st ai ning (SRB) assay
# (§2) Cell pr oliferat ion was eva lua ted by sul for hod amine B pr ot ein st aini ng (SRB) assa y10-12.
# (§3) Briefly, cel ls were se ede d int o 96-well pl ates, cul tur ed overni ght , and trea ted with correspond ing com poun ds for 72 h. Cells were the n fixe d with 10% trichl or oa cetic aci d and st ained with sul for hoda mine B (Sigm a). Sul for hoda mine B in the cells was di sso lved in 10 mmol/L Tris-HCl and was measured at 515 nm usi ng a multiw ell spect ropho tometer (VERSA max, Mol ecul ar Devi ces, Sunnyva le, CA). The inhi bi tion rat e on cell pr olif eratio n was cal culated for each well as (A515contr ol cells-A 515tr eated cells)/A515contr ol cells×100 % (A515:
# (§4) OD va lue at 515 nm ). The averag e IC50 va lue s were de termine d by Logit method from at leas t t hr eei nde pe nde nt test s.
# [3] = system: HepG2 cells; experiment: Sulforhodamine B protein staining (SRB) assay in HepG2; type: cell-based, human; details: Homo sapiens
# Description: as §1, §2, §3, §4
# [4] = system: A549 cells; experiment: SRB assay in A549; type: cell-based, human; details: Homo sapiens; A549, SRB, 10-fold concentration gradient; read-out: anti-proliferation IC50, initial screen
# Description: as §1, §2, §3, §4
# [5] = biological target: T1, NAMPT; experiment: Cellular thermal shift assay (CETSA / […]) in HepG2 cell lysate; type: binding; parameters: endogenous in cells; host or cells: HepG2
# [6] = system: HepG2 cells; experiment: Cell counting kit-8 (CCK-8) cell viability assay in HepG2; type: cell-based, human; details: HepG2, 48 hours treatment, read-out: CCK-8 assay in HepG2: IC50
# Description: (§5) Cellc ount ing k it-8 (CCK-8) assa y
# Cell vi ability was de termine d by ou r previ ous method9 usi ng the Cell Counting Kit-8 (CCK -8, Dojindo, Ja pa n). In hu man he pa tocellu lar carcinom a cell line HepG 2, cells were seede d in 96-well plate and starve d for ove r 12 h with se rum-free DMEM at 60~ 70% conf lue nc y, the n trea ted wit h com pounds or ve hicle for 24 h to 72 h accor ding to expe riment requi rement s. […]
# (§6) 10 μl CCK-8 sol ution was adde d to the cul ture medium and inc ub ated at 37 °C for 1 h. Th e absor banc e at 450 nm (A450) was de tected by a pl ate reade r. Each e xperi ment w as carr ied out i n t riplic ate i n thr ee r eplic ate w ells.
# [7] = biological target: T1, NAMPT; experiment: Cellular thermal shift assay (CETSA / […]) in intact HepG2 cells; type: cell-based; parameters: endogenous in cells; host or cells: HepG2; details: 62 °C
# [8] = system: Huh7-C cells; experiment: CCK-8 assay in stem-like human hepatoma cell line Huh7-C; type: cell-based; details: Huh7-C, treated 60 h, read-out: CCK-8 assay in Huh7-C: IC50
# Description: as §5
# Cell vi ability was de termine d by ou r previ ous method9 usi ng the Cell Counting Kit-8 (CCK -8, […]
# as §6
# [9] = HepG2, 72 h, HepG2, second test, 2-fold concentration gradient, 72 hours, read-out: SRB assay in HepG2: IC50
# [10] = HepG2, HepG2, SRB, 10-fold concentration gradient, read-out: anti-proliferation IC50, initial screen
# T1 sequence (P43490 whole entry): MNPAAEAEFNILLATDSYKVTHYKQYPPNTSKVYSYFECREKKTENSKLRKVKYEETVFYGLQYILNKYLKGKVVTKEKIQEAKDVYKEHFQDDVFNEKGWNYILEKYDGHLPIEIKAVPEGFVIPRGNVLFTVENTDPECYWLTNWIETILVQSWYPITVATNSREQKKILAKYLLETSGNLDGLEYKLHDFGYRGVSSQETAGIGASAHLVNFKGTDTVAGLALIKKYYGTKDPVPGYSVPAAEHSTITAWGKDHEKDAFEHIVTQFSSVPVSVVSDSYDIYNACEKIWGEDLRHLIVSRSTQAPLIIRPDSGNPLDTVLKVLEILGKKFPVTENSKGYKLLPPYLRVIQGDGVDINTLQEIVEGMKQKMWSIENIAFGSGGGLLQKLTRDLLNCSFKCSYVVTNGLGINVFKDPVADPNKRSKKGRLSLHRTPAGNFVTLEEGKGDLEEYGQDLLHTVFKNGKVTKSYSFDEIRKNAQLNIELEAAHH
Structure (SMILES),IC50 ([1]; mean ± s.e.),also measured
"O=S(=O)(c1ccc(NC(=S)NCc2cccnc2)cc1)N1CCN(C2CCCCC2)CC1 [MS8, 1-(4-((4-cyclohexylpiperazin-1-yl)sulfonyl)phenyl)-3-(pyridin-3-ylmethyl)thiourea]",0.0142 ± 0.0024 µM,
O=S(=O)(c1ccc(NC(=S)NCc2cccnc2)cc1)N1CCNCC1 [MS2],0.0845 ± 0.0075 µM,
CCOC(=O)N=C(NCc1cccnc1)Nc1ccc(S(=O)(=O)N2CCCCC2)cc1 [MS12],,IC50 ([1]; values given in μM): > 166 µM
N=C(NCc1cccnc1)Nc1ccc(S(=O)(=O)N2CCCCC2)cc1 [MS18],0.765 ± 0.0748 µM,
Cc1cccc(CN2CCN(S(=O)(=O)c3ccc(NC(=S)NCc4cccnc4)cc3)CC2)c1 [MS28],0.0168 ± 0.0015 µM,"IC50 [2]: < 5000 nM; IC50 [3, 9]: > 10000 nM; IC50 [3, 10]: < 5000 nM; IC50 [4]: < 5000 nM"
CN1CCN(S(=O)(=O)c2ccc(NC(=S)NCc3cccnc3)cc2)CC1 [MS4],0.0964 ± 0.0123 µM,
O=C(c1ccc(NC(=S)NCc2cccnc2)cc1)N1CCCCC1 [MS15],0.0422 ± 0.0031 µM,
O=C(Nc1ccc(S(=O)(=O)N2CCCCC2)cc1)OCc1cccnc1 [MS17],0.0428 ± 0.004 µM,
COc1cccc(/C=C2/N=C(c3ccc(NC(=O)c4cccs4)cc3)OC2=O)c1OC [compound 6443],0.352 ± 0.045 µM,
Cc1ccc2oc(=O)n(CCC(N)=NOC(=O)c3ccccc3)c2c1 [compound 7391],0.855 ± 0.17 µM,
Cc1ccc(N2CCN(S(=O)(=O)c3ccc(NC(=S)NCc4cccnc4)cc3)CC2)cc1 [MS46],0.0154 ± 0.0016 µM,
O=S(=O)(NCc1ccccc1)c1ccc(NC(=S)NCc2cccnc2)cc1 [MS10],0.0196 ± 0.0002 µM,
Nc1ccc(CN2CCN(S(=O)(=O)c3ccc(NC(=S)NCc4cccnc4)cc3)CC2)cc1 [MS38],0.0199 ± 0.0028 µM,
O=S(=O)(c1ccc(NC(=S)NCc2cccnc2)cc1)N1CCN(Cc2ccccc2F)CC1 [MS25],0.0123 ± 0.002 µM,
CCOC(=S)Nc1ccc(C(=O)N2CCCCC2)cc1 [MS20],,inhibition on NAMPT activity (in words) [1]: no NAMPT inhibition; IC50 ([1]; values given in μM): > 150 µM
O=S(=O)(c1ccc(NC(=S)NCc2cccnc2)cc1)N1CCN(Cc2cccc(Cl)c2)CC1 [MS29],0.0126 ± 0.0017 µM,
O=S(=O)(c1ccc(NC(=S)NCc2cccnc2)cc1)N1CCN(Cc2ccc3ccccc3c2)CC1 [MS33],0.0295 ± 0.0008 µM,"IC50 [2]: < 5000 nM; IC50 [3, 9]: 8940 ± 450 nM; IC50 [3, 10]: < 5000 nM; IC50 [4]: < 5000 nM"
N#CN=C(NCc1cccnc1)Nc1ccc(S(=O)(=O)N2CCCC2)cc1 [MS21],0.577 ± 0.0387 µM,
COc1ccc(CCNC(=O)c2cc3ccccc3s2)cc1OC [compound 2161],0.149 ± 0.021 µM,
O=S(=O)(c1ccc(NC(=S)NCc2cccnc2)cc1)N1CCN(Cc2nc3ccccc3[nH]2)CC1 [MS39],0.014 ± 0.0003 µM,
"O=C(/C=C/c1cccnc1)NCCCCC1CCN(C(=O)c2ccccc2)CC1 [FK866, reference compound]",,"IC50 [3, 9]: 50 nM"
O=S(=O)(c1ccc(NC(=S)NCc2cccnc2)cc1)N1CCN(Cc2ccc(OC(F)(F)F)cc2)CC1 [MS35],0.0369 ± 0.0046 µM,"IC50 [2]: < 5000 nM; IC50 [3, 9]: 4830 ± 130 nM; IC50 [3, 10]: < 5000 nM; IC50 [4]: < 5000 nM"
O=S(=O)(c1ccc(NC(=S)NCc2cccnc2)cc1)N1CCN(Cc2ccc(F)cc2)CC1 [MS22],0.012 ± 0.0015 µM,
O=S(=O)(c1ccc(NC(=S)NCc2cccnc2)cc1)N1CCOCC1 [MS11],0.0217 ± 0.0008 µM,
O=S(=O)(c1ccc(NC(=S)NCc2cccnc2)cc1)N1CCN(Cc2ccoc2)CC1 [MS40],0.0487 ± 0.0045 µM,
"O=S(=O)(c1ccc(NC(=S)NCc2cccnc2)cc1)N1CCN(c2ccccn2)CC1 [MS6, 1-(4-((4-(pyridin-2-yl)piperazin-1-yl)sulfonyl)phenyl)-3-(pyridin-3-ylmethyl)thiourea]",0.0177 ± 0.0034 µM,
O=[N+]([O-])c1ccc(CN2CCN(S(=O)(=O)c3ccc(NC(=S)NCc4cccnc4)cc3)CC2)cc1 [MS37],0.0197 ± 0.0021 µM,"IC50 [2]: < 5000 nM; IC50 [3, 9]: 4650 ± 1030 nM; IC50 [3, 10]: < 5000 nM; IC50 [4]: < 5000 nM"
O=S(=O)(c1ccc(NC(=S)NCc2cccnc2)cc1)N1CCN(Cc2c(F)cccc2F)CC1 [MS23],0.0099 ± 0.0012 µM,"IC50 [2]: < 5000 nM; IC50 [3, 9]: > 10000 nM; IC50 [3, 10]: < 5000 nM; IC50 [4]: < 5000 nM"
CCCCc1ccc(CN2CCN(S(=O)(=O)c3ccc(NC(=S)NCc4cccnc4)cc3)CC2)cc1 [MS36],0.0798 ± 0.0061 µM,
"O=S(=O)(c1ccc(NC(=S)NCc2cccnc2)cc1)N1CCN(Cc2ccccc2)CC1 [MS7, 1-(4-((4-benzylpiperazin-1-yl)sulfonyl)phenyl)-3-(pyridin-3-ylmethyl)thiourea]",0.00093 µM and 0.0009 µM,"CETSA melting curve shift of NAMPT in cell lysate ([5]; HepG2 cell lysate, 100 μM): large thermal shift; ITDRFCETSA for NAMPT in lysate, compared with MS1 ([5]; cell lysate, 62 °C): shifted to the left; IC50 [6]: 1270 nM; IC50 ([6]; Homo sapiens, HepG2, 48 h): 1270 ± 158 nM; IC50 [3, 9]: > 10000 nM; ITDRFCETSA of NAMPT in cell lysate versus intact cells ([7]; lysate value relative to intact cells): no significant difference; ITDRFCETSA for NAMPT in intact cell, difference to MS1 (shifted to the right) ([7]; intact cell): no less than 10 fold; IC50 [8]: 1060 ± 248 nM"

# Second part, led by results:
IC50 ([1]; mean ± s.e.),Structure (SMILES),also measured
0.0098 ± 0.0009 µM,O=S(=O)(c1ccc(NC(=S)NCc2cccnc2)cc1)N1CCN(Cc2cccnc2)CC1 [MS45],
0.0124 ± 0.0009 µM,Cc1ccccc1CN1CCN(S(=O)(=O)c2ccc(NC(=S)NCc3cccnc3)cc2)CC1 [MS27],
0.0089 ± 0.0005 µM,O=S(=O)(c1ccc(NC(=S)NCc2cccnc2)cc1)N1CCN(Cc2cccc(F)c2)CC1 [MS24],
0.022 ± 0.0046 µM,O=S(=O)(Nc1ccccc1)c1ccc(NC(=S)NCc2cccnc2)cc1 [MS3],
0.0225 ± 0.0008 µM,O=S(=O)(c1ccc(NC(=S)NCc2cccnc2)cc1)N1CCN(Cc2ccsc2)CC1 [MS41],
0.777 ± 0.084 µM,O=C(NCc1ccc(S(=O)(=O)NCc2cc(F)cc3c2OCOC3)s1)c1ccc(Cl)cc1 [compound 4162],
0.0388 ± 0.0018 µM,O=S(=O)(c1ccc(NC(=S)NCc2cccnc2)cc1)N1CCN(Cc2cccs2)CC1 [MS43],
0.0191 ± 0.002 µM,O=S(=O)(c1ccc(NC(=S)NCc2cccnc2)cc1)N1CCN(Cc2ccco2)CC1 [MS42],
0.0137 ± 0.0004 µM,O=S(=O)(c1ccc(NC(=S)NCc2cccnc2)cc1)N1CCN(Cc2ccncc2)CC1 [MS44],
0.0157 ± 0.0025 µM,O=S(=O)(c1ccc(NC(=S)NCc2cccnc2)cc1)N1CCN(Cc2ccccc2Cl)CC1 [MS30],
14.5 ± 0.203 µM,N=C(NCc1cccnc1)Nc1ccc(C(=O)N2CCCCC2)cc1 [MS19],IC50 ([1]; values given in μM): 14.5 ± 0.2 µM
0.0242 ± 0.0016 µM,O=S(=O)(c1ccc(NC(=S)NCc2cccnc2)cc1)N1CCN(Cc2ccc(Br)cc2)CC1 [MS32],"IC50 [2]: < 5000 nM; IC50 [3, 9]: 4860 ± 150 nM; IC50 [3, 10]: < 5000 nM; IC50 [4]: < 5000 nM"
0.0137 ± 0.0016 µM,O=S(=O)(c1ccc(NC(=S)NCc2cccnc2)cc1)N1CCN(Cc2ccc(Cl)cc2)CC1 [MS31],"IC50 [2]: < 5000 nM; IC50 [3, 9]: 5810 ± 710 nM; IC50 [3, 10]: < 5000 nM; IC50 [4]: < 5000 nM"
0.504 ± 0.124 µM,O=C1C[C@H](c2ccc(O)cc2)Oc2c1c(O)cc(O)c2[C@@H]1C(=O)c2c(O)cc(O)cc2O[C@H]1c1ccc(O)cc1 [compound 3909],
0.0105 ± 0.002 µM,Cc1ccc(CN2CCN(S(=O)(=O)c3ccc(NC(=S)NCc4cccnc4)cc3)CC2)cc1 [MS26],
0.0439 ± 0.0024 µM,"O=S(=O)(c1ccc(NC(=S)NCc2cccnc2)cc1)N1CCCC1 [MS9, 1-(pyridin-3-ylmethyl)-3-(4-(pyrrolidin-1-ylsulfonyl)phenyl)thiourea]",
0.0405 ± 0.0018 µM,"CC(=O)N1CCN(S(=O)(=O)c2ccc(NC(=S)NCc3cccnc3)cc2)CC1 [MS5, 1-(4-((4-acetylpiperazin-1-yl)sulfonyl)phenyl)-3-(pyridin-3-ylmethyl)thiourea]",
